As a reminder, the IC20 is the point of the concentration-response curve where the effect stands at 20%. The term IC50 denotes the concentration at which inhibition is half-maximal.

Results on 9 compounds are retold here after US20230041743A1, “1,8-NAPHTHYRIDIN-2-ONE COMPOUNDS FOR THE TREATMENT OF AUTOIMMUNE DISEASE” (Hoffmann-La Roche Inc., priority 2019, published 2023).

A value given as a limit tells only on which side of the number the result lay.

The series deals with T1, hERG channel (Homo sapiens, UniProt Q12809).
T1 construct: expressed in transfected cells; host or cells: CHO (Chinese hamster ovary), CHOhERG
T1 sequence (Q12809 whole entry): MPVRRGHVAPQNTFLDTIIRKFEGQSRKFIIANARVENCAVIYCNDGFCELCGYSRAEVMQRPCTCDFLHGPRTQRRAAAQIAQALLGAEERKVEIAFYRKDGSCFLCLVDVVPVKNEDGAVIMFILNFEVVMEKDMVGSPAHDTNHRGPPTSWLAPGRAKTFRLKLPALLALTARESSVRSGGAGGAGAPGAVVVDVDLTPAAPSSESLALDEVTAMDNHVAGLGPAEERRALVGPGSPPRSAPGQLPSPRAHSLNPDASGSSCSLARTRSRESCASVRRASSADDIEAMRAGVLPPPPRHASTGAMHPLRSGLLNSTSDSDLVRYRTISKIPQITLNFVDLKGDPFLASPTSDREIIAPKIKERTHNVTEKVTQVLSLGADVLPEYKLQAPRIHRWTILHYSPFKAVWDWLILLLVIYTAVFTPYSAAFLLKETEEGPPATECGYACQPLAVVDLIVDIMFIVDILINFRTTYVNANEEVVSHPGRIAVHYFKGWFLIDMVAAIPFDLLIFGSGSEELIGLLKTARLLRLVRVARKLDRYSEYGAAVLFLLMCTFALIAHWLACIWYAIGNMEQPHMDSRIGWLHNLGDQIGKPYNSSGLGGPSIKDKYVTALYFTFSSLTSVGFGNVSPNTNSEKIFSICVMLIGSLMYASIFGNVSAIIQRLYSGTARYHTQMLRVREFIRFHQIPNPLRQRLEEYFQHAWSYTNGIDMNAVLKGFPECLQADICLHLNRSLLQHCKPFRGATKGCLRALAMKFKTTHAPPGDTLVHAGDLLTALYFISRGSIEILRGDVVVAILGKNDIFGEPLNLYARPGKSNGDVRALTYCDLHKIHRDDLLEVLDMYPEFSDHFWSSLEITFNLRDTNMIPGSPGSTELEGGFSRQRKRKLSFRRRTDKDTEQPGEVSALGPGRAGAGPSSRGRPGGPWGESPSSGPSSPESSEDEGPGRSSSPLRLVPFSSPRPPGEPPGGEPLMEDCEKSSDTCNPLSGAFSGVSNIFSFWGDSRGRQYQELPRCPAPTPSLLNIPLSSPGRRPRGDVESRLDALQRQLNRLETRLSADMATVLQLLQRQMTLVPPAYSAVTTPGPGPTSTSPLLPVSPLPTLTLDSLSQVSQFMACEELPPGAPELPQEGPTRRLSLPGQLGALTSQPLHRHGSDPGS
The series is described as follows: hERG channel inhibition assay (patch-clamp, CHOhERG cells). The class given is cell-based. The following applies: whole-cell patch-clamp; for IC20: human, CHO cells stably expressing hERG (CHOhERG). The method, then: hERG Channel Inhibition Assay
The hERG K^+ channels were cloned in humans and stably expressed in a CHO (Chinese hamster ovary) cell line. CHOhERG cells were used for patch-clamp (voltage-clamp, whole-cell) experiments. Cells were stimulated by a voltage pattern to activate hERG channels and conduct IKhERG Currents (rapid delayed outward rectifier potassium current of the hERG channel). After the cells were stabilized for a few minutes, the amplitude and kinetics of IKhERG were recorded at a stimulation frequency of 0.1 Hz (6 bpm). Thereafter, the test compound was added to the preparation at increasing concentrations. For each concentration, an attempt was made to reach a steady-state effect, usually, this was achieved within 3-10 min at which time the next highest concentration was applied. The amplitude and kinetics of IKhERG are recorded in each concentration of the drug which were compared to the control values (taken as 100%). (references: Redfern W S, Carlsson L, Davis A S, Lynch W G, MacKenzie I, Palethorpe S, Siegl P K, Strang I, Sullivan A T, Wallis R, Camm A J, Hammond T G. 2003; Relationships between preclinical cardiac electrophysiology, clinical QT interval prolongation and torsade de pointes for a broad range of drugs: evidence for a provisional safety margin in drug development. Cardiovasc. Res. 58:32-45, Sanguinetti M C, Tristani-Firouzi M. 2006; hERG potassium channels and cardiac arrhythmia. Nature 440:463-469, Webster R, Leishman D, Walker D. 2002; Towards a drug concentration effect relationship for QT prolongation and torsades de pointes. Curr. Opin. Drug Discov. Devel. 5:116-26).
Background: The hERG channel carries a current that helps repolarise heart muscle cells.

On to `C[C@@H]1CN(c2cc(=O)n(C)c3ncccc23)C[C@@H]2c3ccc(N4CC5(CN(C)C5)C4)cc3CN12` [Example 2, 4-[(4R,10bS)-4-methyl-8-(6-methyl-2,6-diazaspiro[3.3]heptan-2-yl)-3,4,6,10b-tetrahydro-1H-pyrazino[2,1-a]isoindol-2-yl]-1-methyl-1,8-naphthyridin-2-one], for which the IC20 is greater than 10 µM and the IC50 is greater than 20 µM.
Compound `CO[C@@H]1CN(c2ccc3c(c2)CN2[C@H](C)CN(c4cc(=O)n(C)c5ncccc45)C[C@H]32)C[C@H]1N` [Example 5, 4-[(4R,10bS)-8-[(3R,4R)-3-amino-4-methoxy-pyrrolidin-1-yl]-4-methyl-3,4,6,10b-tetrahydro-1H-pyrazino[2,1-a]isoindol-2-yl]-1-methyl-1,8-naphthyridin-2-one] came in with a 20% effect concentration (IC20) greater than 10 µM and an IC50 greater than 20 µM.
On the same counts, the results for `C[C@@H]1CN(c2cc(=O)n(C)c3ncccc23)C[C@@H]2c3ccc(N4CCN[C@@H](C)C4)cc3CN12` [Example 13, 4-[(4R,10bS)-4-methyl-8-[(3S)-3-methylpiperazin-1-yl]-3,4,6,10b-tetrahydro-1H-pyrazino[2,1-a]isoindol-2-yl]-1-methyl-1,8-naphthyridin-2-one] are 7.2 µM and greater than 20 µM.
With `C[C@@H]1CN(c2ccc3c(c2)CN2[C@H](C)CN(c4cc(=O)n(C)c5ncccc45)C[C@H]32)CCN1` [Example 14, 4-[(4R,10bS)-4-methyl-8-[(3R)-3-methylpiperazin-1-yl]-3,4,6,10b-tetrahydro-1H-pyrazino[2,1-a]isoindol-2-yl]-1-methyl-1,8-naphthyridin-2-one], the IC20 is greater than 10 µM and the IC50 was greater than 20 µM.
For `C[C@@H]1CN(c2cc(=O)n(C)c3ncccc23)C[C@@H]2c3ccc(N4CCC[C@](C)(N)C4)cc3CN12` [Example 15, 4-[(4R,10bS)-8-[(3S)-3-amino-3-methyl-1-piperidyl]-4-methyl-3,4,6,10b-tetrahydro-1H-pyrazino[2,1-a]isoindol-2-yl]-1-methyl-1,8-naphthyridin-2-one], in that order: greater than 10 µM and greater than 20 µM.
On the same counts, the results for `C[C@@H]1CN(c2cc(=O)n(C)c3ncccc23)C[C@@H]2c3ccc(N4CCC(C)(N)CC4)cc3CN12` [Example 18, 4-[(4R,10bS)-8-(4-amino-4-methyl-1-piperidyl)-4-methyl-3,4,6,10b-tetrahydro-1H-pyrazino[2,1-a]isoindol-2-yl]-1-methyl-1,8-naphthyridin-2-one] are greater than 10 µM and greater than 20 µM.
On the same counts, the results for `C[C@@H]1CN(c2cc(=O)n(C)c3ncccc23)C[C@@H]2c3ccc(N4C[C@@H]5C[C@H]4CN5)cc3CN12` [Example 19, 4-[(4R,10bS)-8-[(1S,4S)-2,5-diazabicyclo[2.2.1]heptan-2-yl]-4-methyl-3,4,6,10b-tetrahydro-1H-pyrazino[2,1-a]isoindol-2-yl]-1-methyl-1,8-naphthyridin-2-one] are greater than 10 µM and greater than 20 µM.
Compound `C[C@@H]1CN(c2cc(=O)n(C)c3ncccc23)C[C@@H]2c3ccc(N4CCOC[C@H](N)C4)cc3CN12` [Example 22, 4-[(4R,10bS)-8-[(6R)-6-amino-1,4-oxazepan-4-yl]-4-methyl-3,4,6,10b-tetrahydro-1H-pyrazino[2,1-a]isoindol-2-yl]-1-methyl-1,8-naphthyridin-2-one] came in with an IC20 greater than 10 µM and an IC50 greater than 20 µM.
Compound `C[C@@H]1CN(c2cc(=O)n(C)c3ncccc23)C[C@@H]2c3ccc(C4CCNCC4)cc3CN12` [Example 24, 4-[(4R,10bS)-4-methyl-8-(4-piperidyl)-3,4,6,10b-tetrahydro-1H-pyrazino[2,1-a]isoindol-2-yl]-1-methyl-1,8-naphthyridin-2-one] had an IC20 greater than 10 µM and an IC50 greater than 20 µM.
